Source: patent US10231967B2, “Compounds and their use as BACE inhibitors” (ASTRAZENECA AB, priority 2010, dated 2019)

Test system: sAPPβ release in SH-SY5Y cells
Assay: sAPPβ release assay
Assay type: cell-based
Conditions: Homo sapiens, SH-SY5Y, 17 h, compounds incubated 17 h, MSD detection
Summary of the method: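 SH-SY5Y cells were exposed to compounds at 1% DMSO final for 17 h at 37 °C. Secreted sAPPβ in 20 μL of medium was quantified by MSD electrochemiluminescence immunoassay with 1 nM detection antibody. Cell plates were then used in an ATP assay for cytotoxicity.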

| IC50 | SMILES |
| --- | --- |
| 417 nM | CC1=NC2(N=C1N)c1cc(-c3cncc(Cl)c3)ccc1CC21CCC(C(F)F)CC1 (centres unmarked) [Example 129] |
| 148 nM | CCO[C@H]1CC[C@]2(CC1)Cc1ccc(Br)cc1C21N=C(C)C(N)=N1 (some centres unmarked) [Example 130, (1r,4r)-6′-Bromo-4-ethoxy-5″-methyl-3′H-dispiro[cyclohexane-1,2′-indene-1′,2″-imidazol]-4″-amine] |
| 24 nM | CCO[C@H]1CC[C@]2(CC1)Cc1ccc(-c3cncc(C(F)(F)F)c3)cc1C21N=C(C)C(N)=N1 (some centres unmarked) [Example 131] |
| 17 nM | CCO[C@H]1CC[C@]2(CC1)Cc1ccc(-c3cc(F)cc(C#N)c3)cc1C21N=C(C)C(N)=N1 (some centres unmarked) [Example 132, 3-[(1r,4r)-4″-amino-4-ethoxy-5″-methyl-3′H-dispiro[cyclohexane-1,2′-indene-1′,2″-imidazol]-6′-yl]-5-fluorobenzonitrile] |
| 0.85 nM | CC#Cc1cncc(-c2ccc3c(c2)C2(N=C(C)C(N)=N2)[C@]2(CC[C@H](OCC)CC2)C3)c1 (some centres unmarked) [Example 135, (1r,4r)-4-Ethoxy-5″-methyl-6′-[5-(prop-1-yn-1-yl)pyridin-3-yl]-3′H-dispiro[cyclohexane-1,2′-indene-1′,2″-imidazol]-4″-amine] |

Same assay, conditions: Homo sapiens, compounds incubated 17 h, MSD detection

| IC50 | SMILES |
| --- | --- |
| 5.1 nM | COCc1cc(-c2ccc3c(c2)C2(N=C(C)C(N)=N2)[C@]2(CC[C@H](OC)CC2)C3)cc(C#N)c1F (some centres unmarked) [Example 127, 5-[(1r,4r)-4″-Amino-4-methoxy-5″-methyl-3′H-dispiro[cyclohexane-1,2′-indene-1′,2″-imidazol]-6′-yl]-2-fluoro-3-(methoxymethyl)benzonitrile] |
| 5.5 nM | CCO[C@H]1CC[C@]2(CC1)Cc1ccc(-c3cncc(Cl)c3)cc1C21N=C(C)C(N)=N1 (some centres unmarked) [Example 133, (1r,4r)-6′-(5-chloropyridin-3-yl)-4-ethoxy-5″-methyl-3′H-dispiro[cyclohexane-1,2′-indene-1′,2″-imidazol]-4″-amine] |
| 7.7 nM | CCO[C@H]1CC[C@]2(CC1)Cc1ccc(-c3cc(C#N)cc(C(F)F)c3)cc1C21N=C(C)C(N)=N1 (some centres unmarked) [Example 134, 3-[(1r,4r)-4″-Amino-4-ethoxy-5″-methyl-3′H-dispiro[cyclohexane-1,2′-indene-1′,2″-imidazol]-6′-yl]-5-(difluoromethyl)benzonitrile] |
